# Earlier results, collected in US8828355B2, “Imaging reporters of transgene expression” (University of Utah Research Foundation, priority 2004, dated 2014).
# Tests used:
# Maltose binding protein = Maltose binding protein (Escherichia coli, UniProt P0AEX9); settings: specificity
# [1] = target: Mutant maltose binding protein, combination of both these mutations (Escherichia coli, UniProt P0AEX9, DEL198-201/M347A/Q351A/Y202G); settings: read-out: KD for maltotriose
compound,measurement,setting,value
OC[C@H]1O[C@@H](O[C@H]2[C@H](O)[C@@H](O)C(O)O[C@@H]2CO)[C@H](O)[C@@H](O)[C@H]1O (stereo partly shown) [lactose],binding to maltose binding protein,Maltose binding protein,not to bind
OC[C@H]1O[C@H](O[C@H]2[C@H](O)[C@@H](O)[C@H](O)O[C@@H]2CO)[C@H](O)[C@@H](O)[C@@H]1O [maltose],clearance from the body,infused,rapidly cleared from the body by the kidney
same,distribution after infusion,infused,distributed in the extracellular space
same,safety of intravenous infusion,intravenous infusion,safe
OC[C@H]1O[C@@](CO)(O[C@H]2O[C@H](CO)[C@@H](O)[C@H](O)[C@H]2O)[C@@H](O)[C@@H]1O [sucrose],binding to maltose binding protein,Maltose binding protein,not to bind
OC[C@H]1O[C@H](O[C@H]2O[C@H](CO)[C@@H](O)[C@H](O)[C@H]2O)[C@H](O)[C@@H](O)[C@@H]1O [trehalose],binding to maltose binding protein,Maltose binding protein,not to bind
maltotriose,Kd,[1],6 nM
